Test results published in patent US20260144890A1, “ANTIBODY DRUG CONJUGATE COMPRISING NMT INHIBITOR CONJUGATED TO AN ANTIBODY” (MyricX Pharma Limited, priority 2024, published 2026).

How the values were obtained:
Type in all cases: cell-based
[1] = test system: gastric cancer organoid GA0429B; test: Gastric cancer organoid viability (CTG 3D), GA0429B; parameters: unit not given beside the values
Method: (§1) Day −1: Patient derived gastric cancer organoids (PDXOs) are sheared to uniform sizes and the required number of organoids are combined 1:1 with 50% Matrigel to produce the right size of the organoids to perform the screen.
(§2) Day 0: Organoid seeding • 1. Collect organoids from each well by adding 20 μl 100× Dispase solution to each well from a 6-well plate, which contains 2 ml of organoid medium. • 2. Put the plates back in the incubator, 37° C. for 30 min. • 3. Collect organoids from all wells and pipet through a pre-wet 100 μm filter into a 50 ml plastic tube. • 4. Once all wells have been filtered over 100 μm filters, filter the flow though over a pre-wet 20 μm filter. • 5. […]
(§3) • 10. Place screening plates back into the incubator before adding compounds and day 0 reading. […] One is for day 0 reading (TO) and the other for reading at the end point.
(§4) Day 0: Compounds treatment and Day 0 baseline CTG (cell titre glo) reading • 11. […] For day 0 reading plate, add 40 μL of CTG 3D per well and read luminescent signal on Envision plate reader.
(§5) Day 6: Endpoint CTG reading. • 1. Read assay plates for luminescent CTG signal at the end of the assays: add 40 μL of CTG 3D per well by Multidrop dispenser, mix the contents for 5 min on the plate shaker, and incubate the plates for 30 min at room temperature in dark. Read luminescent signal on Envision plate reader. […]

[2] = test system: gastric cancer organoid GA6877B; test: Gastric cancer organoid viability (CTG 3D), GA6877B; parameters: unit not given beside the values
Method: as §1, §2, §3, §4, §5

[3] = test system: gastric cancer organoid GA6894B; test: Gastric cancer organoid viability (CTG 3D), GA6894B; parameters: AUC (area under curve): unit not given beside the values
Method: as §1, §2, §3, §4, §5

[4] = test system: gastric cancer organoid GA2434B; test: Gastric cancer organoid viability (CTG 3D), GA2434B; parameters: unit not given beside the values
Method: as §1, §2, §3, §4, §5

[5] = test system: gastric cancer organoid GA3102B; test: Gastric cancer organoid viability (CTG 3D), GA3102B; parameters: unit not given beside the values
Method: as §1, §2, §3, §4, §5

[6] = test system: gastric cancer organoid GA0119B; test: Gastric cancer organoid viability (CTG 3D), GA0119B; parameters: AUC (area under curve): unit not given beside the values
Method: as §1, §2, §3, §4, §5

[7] = test system: gastric cancer organoid GA0091B; test: Gastric cancer organoid viability (CTG 3D), GA0091B; parameters: AUC (area under curve): unit not given beside the values
Method: as §1, §2, §3, §4, §5

[8] = test system: gastric cancer organoid GA6815B; test: Gastric cancer organoid viability (CTG 3D), GA6815B; parameters: AUC (area under curve): unit not given beside the values
Method: as §1, §2, §3, §4, §5

[9] = test system: gastric cancer organoid GA0098B; test: Gastric cancer organoid viability (CTG 3D), GA0098B; parameters: AUC (area under curve): unit not given beside the values
Method: as §1, §2, §3, §4, §5

[10] = test system: gastric cancer organoid GA6833B; test: Gastric cancer organoid viability (CTG 3D), GA6833B; parameters: unit not given beside the values
Method: as §1, §2, §3, §4, §5

[11] = test system: gastric cancer organoid GA0087B; test: Gastric cancer organoid viability (CTG 3D), GA0087B; parameters: AUC (area under curve): unit not given beside the values
Method: as §1, §2, §3, §4, §5

[12] = test system: gastric cancer organoid GA2109B; test: Gastric cancer organoid viability (CTG 3D), GA2109B; parameters: unit not given beside the values
Method: as §1, §2, §3, §4, §5

[13] = test system: gastric cancer organoid GA3055B; test: Gastric cancer organoid viability (CTG 3D), GA3055B; parameters: unit not given beside the values
Method: as §1, §2, §3, §4, §5

[14] = test system: gastric cancer organoid GA6866B; test: Gastric cancer organoid viability (CTG 3D), GA6866B; parameters: unit not given beside the values
Method: as §1, §2, §3, §4, §5

[15] = test system: gastric cancer organoid GA0060B; test: Gastric cancer organoid viability (CTG 3D), GA0060B; parameters: unit not given beside the values
Method: as §1, §2, §3, §4, §5

[16] = test system: gastric cancer organoid GA6891B; test: Gastric cancer organoid viability (CTG 3D), GA6891B; parameters: AUC (area under curve): unit not given beside the values
Method: as §1, §2, §3, §4, §5

CN[C@@H]1C[C@H]2O[C@@](C)([C@@H]1OC)n1c3ccccc3c3c4c(c5c6ccccc6n2c5c31)C(=O)NC4 [Staurosporine]
AUC (area under curve) [1]: 170.8729 | AUC (area under curve) [2]: 175.472 | AUC (area under curve) [3]: 230.6577 | IC50 [3]: 8.5 nM | AUC (area under curve) [4]: 226.6809 | AUC (area under curve) [5]: 200.7667 | AUC (area under curve) [6]: 212.2837 | IC50 [6]: 8.9 nM | AUC (area under curve) [7]: 199.9 | IC50 [7]: 22.2 nM | AUC (area under curve) [8]: 194.3428 | IC50 [8]: 15.8 nM | AUC (area under curve) [9]: 239.6 | IC50 [9]: 22.1 nM | AUC (area under curve) [10]: 158.1701 | AUC (area under curve) [11]: 113.2 | IC50 [11]: 2.9 nM | AUC (area under curve) [12]: 233.3136 | AUC (area under curve) [13]: 144.7132 | AUC (area under curve) [14]: 201.1356 | AUC (area under curve) [15]: 85.1 | AUC (area under curve) [16]: 174.0868 | IC50 [16]: 9 nM
